# Measured values: the kinase profiling compilation of Christmann-Franck et al. (2016)
# Tests used:
# Assay in all cases: split-luciferase competition binding
# [1] = biological target: AURKB (human) (UniProt Q96GD4); details: compound 10.0 µM
# [2] = biological target: PDPK1 (human) (UniProt O15530); details: compound 10.0 µM
# [3] = biological target: RPS6KA6 KD1 (human) (UniProt Q9UK32); details: compound 10.0 µM
# [4] = biological target: DMPK (human) (UniProt Q09013); details: compound 10.0 µM
# [5] = biological target: STK32B (human) (UniProt Q9NY57); details: compound 10.0 µM
# [6] = biological target: RPS6KA3 KD1 (human) (UniProt P51812); details: compound 10.0 µM
# [7] = biological target: SGK2 (human) (UniProt Q9HBY8); details: compound 10.0 µM
# SGK2 (human), sequence (Q9HBY8 whole entry, looked up): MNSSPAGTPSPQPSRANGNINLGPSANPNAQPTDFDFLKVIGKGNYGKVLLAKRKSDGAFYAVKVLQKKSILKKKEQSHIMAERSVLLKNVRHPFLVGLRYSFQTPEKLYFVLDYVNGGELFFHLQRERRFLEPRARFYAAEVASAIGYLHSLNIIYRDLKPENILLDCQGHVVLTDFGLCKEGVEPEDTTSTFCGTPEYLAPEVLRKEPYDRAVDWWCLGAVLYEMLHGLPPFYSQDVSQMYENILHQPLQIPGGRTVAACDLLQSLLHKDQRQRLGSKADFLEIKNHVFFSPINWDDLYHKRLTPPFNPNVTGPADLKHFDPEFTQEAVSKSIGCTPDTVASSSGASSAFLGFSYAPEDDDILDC
# [8] = biological target: PRKCG (human) (UniProt P05129); details: compound 10.0 µM
# [9] = biological target: SGK3 (human) (UniProt Q96BR1); details: compound 10.0 µM
# [10] = biological target: PKN1 (human) (UniProt Q16512); details: compound 10.0 µM
# PKN1 (human), sequence (Q16512 whole entry, looked up): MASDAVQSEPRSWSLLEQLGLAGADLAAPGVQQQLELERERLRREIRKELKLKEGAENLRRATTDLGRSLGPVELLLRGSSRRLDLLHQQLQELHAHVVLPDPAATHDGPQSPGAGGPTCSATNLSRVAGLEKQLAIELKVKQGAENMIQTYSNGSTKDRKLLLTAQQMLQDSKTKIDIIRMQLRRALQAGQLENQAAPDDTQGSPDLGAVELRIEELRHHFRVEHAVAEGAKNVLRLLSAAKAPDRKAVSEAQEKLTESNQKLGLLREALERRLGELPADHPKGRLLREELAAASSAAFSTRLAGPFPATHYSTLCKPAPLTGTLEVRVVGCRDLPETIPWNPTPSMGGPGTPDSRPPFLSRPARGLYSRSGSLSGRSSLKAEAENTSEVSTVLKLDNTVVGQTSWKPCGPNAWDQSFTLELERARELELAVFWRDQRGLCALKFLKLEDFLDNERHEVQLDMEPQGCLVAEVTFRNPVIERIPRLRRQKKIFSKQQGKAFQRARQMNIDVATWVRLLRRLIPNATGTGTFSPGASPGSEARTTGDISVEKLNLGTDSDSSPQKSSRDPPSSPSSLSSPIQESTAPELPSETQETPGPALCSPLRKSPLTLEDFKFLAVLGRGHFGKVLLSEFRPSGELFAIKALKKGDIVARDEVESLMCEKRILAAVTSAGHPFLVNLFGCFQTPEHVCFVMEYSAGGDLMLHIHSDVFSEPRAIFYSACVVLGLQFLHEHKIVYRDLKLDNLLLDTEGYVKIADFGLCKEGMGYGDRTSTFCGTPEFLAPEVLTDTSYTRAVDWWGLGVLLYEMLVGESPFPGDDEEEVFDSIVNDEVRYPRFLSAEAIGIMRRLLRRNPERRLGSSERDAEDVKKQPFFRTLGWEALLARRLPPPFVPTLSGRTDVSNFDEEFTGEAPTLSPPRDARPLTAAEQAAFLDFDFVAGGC
# [11] = biological target: AURKA (human) (UniProt O14965); details: compound 10.0 µM
# AURKA (human), sequence (O14965 whole entry, looked up): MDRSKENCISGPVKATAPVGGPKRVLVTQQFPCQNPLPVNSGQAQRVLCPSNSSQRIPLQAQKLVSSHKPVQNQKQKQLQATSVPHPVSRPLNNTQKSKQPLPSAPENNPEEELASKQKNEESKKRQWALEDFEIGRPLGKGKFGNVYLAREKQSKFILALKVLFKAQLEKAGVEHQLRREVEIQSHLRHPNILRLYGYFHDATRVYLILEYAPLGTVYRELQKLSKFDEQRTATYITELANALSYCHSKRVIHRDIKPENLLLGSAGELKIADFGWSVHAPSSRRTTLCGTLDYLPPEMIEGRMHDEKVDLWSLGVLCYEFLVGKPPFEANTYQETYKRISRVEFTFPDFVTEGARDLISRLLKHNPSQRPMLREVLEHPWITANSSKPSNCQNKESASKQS
# [12] = biological target: RPS6KA5 KD1 (human) (UniProt O75582); details: compound 10.0 µM
# RPS6KA5 KD1 (human), sequence (O75582 whole entry, looked up): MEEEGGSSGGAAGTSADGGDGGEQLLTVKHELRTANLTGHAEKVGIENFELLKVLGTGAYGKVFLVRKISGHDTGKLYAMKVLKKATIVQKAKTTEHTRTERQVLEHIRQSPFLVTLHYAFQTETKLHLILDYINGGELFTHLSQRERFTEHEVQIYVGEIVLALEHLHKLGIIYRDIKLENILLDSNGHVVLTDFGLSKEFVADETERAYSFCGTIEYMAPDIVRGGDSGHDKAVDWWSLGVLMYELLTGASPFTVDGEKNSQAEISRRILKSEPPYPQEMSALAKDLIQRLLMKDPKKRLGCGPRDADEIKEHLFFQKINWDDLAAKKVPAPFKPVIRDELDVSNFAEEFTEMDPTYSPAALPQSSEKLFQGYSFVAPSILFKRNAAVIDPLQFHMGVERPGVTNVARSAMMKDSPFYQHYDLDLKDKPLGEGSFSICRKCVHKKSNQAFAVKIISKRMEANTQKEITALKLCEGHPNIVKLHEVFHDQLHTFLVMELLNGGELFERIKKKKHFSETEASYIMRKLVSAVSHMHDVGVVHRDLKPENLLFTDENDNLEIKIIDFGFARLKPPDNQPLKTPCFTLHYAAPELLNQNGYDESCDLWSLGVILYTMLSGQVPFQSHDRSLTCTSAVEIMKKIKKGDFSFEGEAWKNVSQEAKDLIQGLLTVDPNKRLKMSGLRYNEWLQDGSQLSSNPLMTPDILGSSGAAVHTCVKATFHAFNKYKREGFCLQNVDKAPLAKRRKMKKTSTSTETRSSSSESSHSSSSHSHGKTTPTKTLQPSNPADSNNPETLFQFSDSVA
# [13] = biological target: PRKCH (human) (UniProt P24723); details: compound 10.0 µM
# [14] = biological target: PRKX (human) (UniProt P51817); details: compound 10.0 µM
# [15] = biological target: RPS6KA1 KD1 (human) (UniProt Q15418); details: compound 10.0 µM
# [16] = biological target: AKT3 (human) (UniProt Q9Y243); details: compound 10.0 µM
# [17] = biological target: PRKCD (human) (UniProt Q05655); details: compound 10.0 µM
# [18] = biological target: AURKC (human) (UniProt Q9UQB9); details: compound 10.0 µM
# AURKC (human), sequence (Q9UQB9 whole entry, looked up): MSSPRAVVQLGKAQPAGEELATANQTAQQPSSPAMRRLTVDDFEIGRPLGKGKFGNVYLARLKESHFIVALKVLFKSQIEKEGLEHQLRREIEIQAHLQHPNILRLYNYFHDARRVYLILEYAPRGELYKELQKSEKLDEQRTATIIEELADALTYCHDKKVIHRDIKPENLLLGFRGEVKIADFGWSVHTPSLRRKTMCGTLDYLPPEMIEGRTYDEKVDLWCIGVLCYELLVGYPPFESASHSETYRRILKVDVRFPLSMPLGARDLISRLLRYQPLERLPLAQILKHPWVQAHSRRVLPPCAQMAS
# [19] = biological target: PRKACB (human) (UniProt P22694); details: compound 10.0 µM
# [20] = biological target: PRKCI (human) (UniProt P41743); details: compound 10.0 µM
# PRKCI (human), sequence (P41743 whole entry, looked up): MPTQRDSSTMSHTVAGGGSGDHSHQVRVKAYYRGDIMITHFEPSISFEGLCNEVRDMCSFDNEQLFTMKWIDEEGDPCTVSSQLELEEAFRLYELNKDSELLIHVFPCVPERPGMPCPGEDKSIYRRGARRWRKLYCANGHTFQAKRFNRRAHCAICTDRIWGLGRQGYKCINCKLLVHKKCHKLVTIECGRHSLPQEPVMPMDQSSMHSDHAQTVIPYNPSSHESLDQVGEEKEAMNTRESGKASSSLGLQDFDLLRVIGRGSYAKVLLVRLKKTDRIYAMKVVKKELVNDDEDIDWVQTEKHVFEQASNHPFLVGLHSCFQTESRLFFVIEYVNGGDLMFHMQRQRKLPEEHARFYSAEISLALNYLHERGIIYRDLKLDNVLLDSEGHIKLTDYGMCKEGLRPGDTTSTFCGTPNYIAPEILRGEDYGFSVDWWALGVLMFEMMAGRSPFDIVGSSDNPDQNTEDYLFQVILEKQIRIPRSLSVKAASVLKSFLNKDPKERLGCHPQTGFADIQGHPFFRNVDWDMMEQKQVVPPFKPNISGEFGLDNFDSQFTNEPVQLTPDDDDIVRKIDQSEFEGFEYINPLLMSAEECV
# [21] = biological target: RPS6KA4 KD1 (human) (UniProt O75676); details: compound 10.0 µM
# RPS6KA4 KD1 (human), sequence (O75676 whole entry, looked up): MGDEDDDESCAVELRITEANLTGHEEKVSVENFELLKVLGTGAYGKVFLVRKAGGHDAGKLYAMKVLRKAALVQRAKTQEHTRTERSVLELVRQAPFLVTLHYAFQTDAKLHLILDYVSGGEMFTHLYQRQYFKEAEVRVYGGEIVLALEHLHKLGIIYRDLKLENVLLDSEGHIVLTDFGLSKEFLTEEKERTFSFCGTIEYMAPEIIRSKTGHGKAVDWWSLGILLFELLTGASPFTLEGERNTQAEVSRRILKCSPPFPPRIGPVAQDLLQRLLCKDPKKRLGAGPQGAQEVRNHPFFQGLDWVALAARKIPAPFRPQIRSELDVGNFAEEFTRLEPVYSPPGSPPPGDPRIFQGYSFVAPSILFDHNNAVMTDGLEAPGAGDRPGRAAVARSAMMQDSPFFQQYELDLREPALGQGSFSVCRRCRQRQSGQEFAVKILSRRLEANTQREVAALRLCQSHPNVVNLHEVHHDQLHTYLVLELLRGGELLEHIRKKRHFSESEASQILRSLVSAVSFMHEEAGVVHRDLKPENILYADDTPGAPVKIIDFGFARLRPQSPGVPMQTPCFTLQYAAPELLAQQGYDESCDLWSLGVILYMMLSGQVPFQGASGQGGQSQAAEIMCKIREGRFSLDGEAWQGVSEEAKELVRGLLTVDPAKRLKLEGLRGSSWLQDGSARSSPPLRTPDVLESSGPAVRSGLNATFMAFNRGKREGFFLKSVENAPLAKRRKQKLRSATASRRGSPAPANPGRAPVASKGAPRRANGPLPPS
# [22] = biological target: PRKCQ (human) (UniProt Q04759); details: compound 10.0 µM
# PRKCQ (human), sequence (Q04759 whole entry, looked up): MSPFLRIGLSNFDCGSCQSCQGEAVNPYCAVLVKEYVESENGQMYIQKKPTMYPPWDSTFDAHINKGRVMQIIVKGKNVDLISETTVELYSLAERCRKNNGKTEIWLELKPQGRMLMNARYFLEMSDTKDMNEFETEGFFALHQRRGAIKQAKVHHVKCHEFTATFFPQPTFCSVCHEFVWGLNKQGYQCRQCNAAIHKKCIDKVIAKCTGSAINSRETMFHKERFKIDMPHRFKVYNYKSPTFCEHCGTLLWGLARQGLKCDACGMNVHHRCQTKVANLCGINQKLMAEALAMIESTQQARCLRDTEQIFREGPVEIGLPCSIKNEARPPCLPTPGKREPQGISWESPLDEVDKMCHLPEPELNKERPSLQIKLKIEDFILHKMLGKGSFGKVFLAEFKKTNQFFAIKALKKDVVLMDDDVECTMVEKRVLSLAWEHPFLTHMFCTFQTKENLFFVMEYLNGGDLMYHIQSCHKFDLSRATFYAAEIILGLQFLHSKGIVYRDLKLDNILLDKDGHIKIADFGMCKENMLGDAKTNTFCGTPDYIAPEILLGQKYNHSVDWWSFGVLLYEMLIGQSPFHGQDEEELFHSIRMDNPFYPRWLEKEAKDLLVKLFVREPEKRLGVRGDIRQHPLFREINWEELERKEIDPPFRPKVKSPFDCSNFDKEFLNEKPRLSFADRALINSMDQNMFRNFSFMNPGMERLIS
# [23] = biological target: PRKCE (human) (UniProt Q02156); details: compound 10.0 µM
# [24] = biological target: AKT2 (human) (UniProt P31751); details: compound 10.0 µM
# [25] = biological target: RPS6KA2 KD1 (human) (UniProt Q15349); details: compound 10.0 µM
# [26] = biological target: AKT1 (human) (UniProt P31749); details: compound 10.0 µM
# [27] = system: PRKACA (mouse); details: compound 10.0 µM; accession and sequence are those of the human protein
inhibition [2] [%],inhibition [3] [%],inhibition [4] [%],inhibition [5] [%],inhibition [6] [%],inhibition [7] [%],inhibition [8] [%],inhibition [9] [%],inhibition [10] [%],inhibition [11] [%],inhibition [12] [%],inhibition [13] [%],inhibition [14] [%],inhibition [15] [%],inhibition [16] [%],inhibition [17] [%],inhibition [18] [%],inhibition [19] [%],inhibition [20] [%],inhibition [21] [%],Structure (SMILES),other results
0,0,3,11,0,0,6,1,0,0,0,8,4,1,0,0,0,1,0,0,O=C(Nc1cc(C(F)(F)F)cc(C(F)(F)F)c1)c1cc(Cl)ccc1O,inhibition [1]: 9%; inhibition [22]: 2%; inhibition [23]: 11%; inhibition [24]: 0%; inhibition [25]: 0%; inhibition [26]: 0%; inhibition [27]: 0%
0,2,6,11,8,0,0,0,1,12,16,0,8,19,0,15,28,0,0,23,CN1CC[C@H](c2c(O)cc(O)c3c(=O)cc(-c4ccccc4Cl)oc23)[C@H](O)C1,inhibition [1]: 0%; inhibition [22]: 35%; inhibition [23]: 0%; inhibition [24]: 0%; inhibition [25]: 2%; inhibition [26]: 1%; inhibition [27]: 5%
0,6,0,4,3,0,0,0,0,6,0,0,2,0,0,0,1,1,0,0,Brc1c(Br)c(Br)c2[nH]nnc2c1Br,inhibition [1]: 2%; inhibition [22]: 0%; inhibition [23]: 0%; inhibition [24]: 0%; inhibition [25]: 4%; inhibition [26]: 0%; inhibition [27]: 0%
0,19,11,4,41,0,0,0,0,0,2,0,0,65,0,0,0,0,0,12,CC(C)[C@H](CO)Nc1nc(Nc2cccc(Cl)c2)c2ncn(C(C)C)c2n1,inhibition [1]: 0%; inhibition [22]: 0%; inhibition [23]: 2%; inhibition [24]: 0%; inhibition [25]: 48%; inhibition [26]: 0%; inhibition [27]: 7%
3,0,0,36,2,0,0,0,0,6,0,5,0,0,0,0,0,0,0,0,CS(=O)c1ccc(-c2nc(-c3ccc(F)cc3)c(-c3ccncc3)[nH]2)cc1 (configuration not stated),inhibition [1]: 0%; inhibition [22]: 0%; inhibition [23]: 0%; inhibition [24]: 0%; inhibition [25]: 3%; inhibition [26]: 11%; inhibition [27]: 0%
0,12,0,15,6,7,0,1,0,11,0,0,0,2,0,0,6,1,0,0,COc1cc(CC2C(=O)OC[C@@H]2Cc2ccc(OC)c(OC)c2)ccc1O (some centres not stated),inhibition [1]: 0%; inhibition [22]: 0%; inhibition [23]: 0%; inhibition [24]: 0%; inhibition [25]: 0%; inhibition [26]: 0%; inhibition [27]: 0%
0,19,11,0,12,10,5,0,4,0,13,10,11,23,0,2,0,11,0,4,O=C1Nc2ccc(I)cc2/C1=C/c1cc(Br)c(O)c(Br)c1,inhibition [1]: 26%; inhibition [22]: 0%; inhibition [23]: 10%; inhibition [24]: 0%; inhibition [25]: 14%; inhibition [26]: 19%; inhibition [27]: 9%
2,59,18,15,27,4,10,0,4,2,0,0,11,10,0,4,28,12,0,14,COc1cc2ncn(-c3cc(OCc4ccccc4C(F)(F)F)c(C(N)=O)s3)c2cc1OC,inhibition [22]: 23%; inhibition [23]: 12%; inhibition [24]: 0%; inhibition [25]: 30%; inhibition [26]: 12%; inhibition [27]: 14%

Structure (SMILES),inhibition [2] [%],inhibition [3] [%],inhibition [4] [%],inhibition [5] [%],inhibition [6] [%],inhibition [7] [%],inhibition [8] [%],inhibition [9] [%],inhibition [10] [%],inhibition [11] [%],inhibition [12] [%],inhibition [13] [%],inhibition [14] [%],inhibition [15] [%],inhibition [16] [%],inhibition [17] [%],inhibition [18] [%],inhibition [19] [%],inhibition [20] [%],inhibition [21] [%],other results
O=C1NC(=O)c2c1c1c3ccccc3n3c1c1c2c2ccccc2n1C1CCC3O1,29,80,37,12,77,87,45,85,10,12,73,78,79,81,45,58,45,71,28,77,inhibition [1]: 60%; inhibition [22]: 82%; inhibition [23]: 59%; inhibition [24]: 56%; inhibition [25]: 81%; inhibition [26]: 78%; inhibition [27]: 65%
